From patent publication US10238670B2, “9-aminomethyl minocycline compounds and methods of use thereof in urinary tract infection (UTI) treatment” (Paratek Pharmaceuticals, Inc., priority 2016, dated 2019)
Values after ≈ are worked out from the molar mass of the structure shown.

Legend:
K. oxytoca = assay: In vitro MIC, 2010 surveillance isolates; assay type: cell-based; conditions: for % R (resistance): CLSI breakpoints
E. cloacae CeftazR = assay: In vitro MIC, 2010 surveillance isolates; assay type: cell-based; conditions: for % R (resistance): CLSI breakpoints
A. baumanii = assay: In vitro MIC, 2010 surveillance isolates; assay type: cell-based
E. cloacae CeftazS = assay: In vitro MIC, 2010 surveillance isolates; assay type: cell-based; conditions: for % R (resistance): CLSI breakpoints
E. coli ESBL+ = assay: In vitro MIC, 2010 surveillance isolates; assay type: cell-based, Escherichia coli; conditions: for % R (resistance): CLSI breakpoints
K. pneumoniae ESBL− = assay: In vitro MIC, 2010 surveillance isolates; assay type: cell-based, Klebsiella pneumoniae; conditions: for % R (resistance): CLSI breakpoints
E. coli ESBL− = assay: In vitro MIC, 2010 surveillance isolates; assay type: cell-based, Escherichia coli; conditions: for % R (resistance): CLSI breakpoints
MS CoNS = assay: In vitro MIC, 2010 surveillance isolates; assay type: cell-based, Coagulase-Negative Staphylococcus
human plasma protein = conditions: literature; cited from earlier work
MRSA = assay: In vitro MIC, 2010 surveillance isolates; assay type: cell-based
E. faecalis VNS = assay: In vitro MIC, 2010 surveillance isolates; assay type: cell-based; conditions: for % R (resistance): CLSI breakpoints
E. faecalis VS = assay: In vitro MIC, 2010 surveillance isolates; assay type: cell-based; conditions: for % R (resistance): CLSI breakpoints
E. faecium VNS = assay: In vitro MIC, 2010 surveillance isolates; assay type: cell-based; conditions: for % R (resistance): CLSI breakpoints
MR CoNS = assay: In vitro MIC, 2010 surveillance isolates; assay type: cell-based, Coagulase-Negative Staphylococcus
E. faecium VS = assay: In vitro MIC, 2010 surveillance isolates; assay type: cell-based; conditions: for % R (resistance): CLSI breakpoints
K. pneumoniae ESBL+ = assay: In vitro MIC, 2010 surveillance isolates; assay type: cell-based, Klebsiella pneumoniae; conditions: for % R (resistance): CLSI breakpoints
Acinetobacter spp = assay: In vitro MIC, 2010 surveillance isolates; assay type: cell-based; conditions: for range of MICs (N <10, shown instead of MIC90): N=9; for % R (resistance): CLSI breakpoints
MSSA = assay: In vitro MIC, 2010 surveillance isolates; assay type: cell-based
Enterobacter spp = assay: In vitro MIC, 2010 surveillance isolates; assay type: cell-based; conditions: for % R (resistance): CLSI breakpoints

With `C[C@H]1c2cccc(O)c2C(=O)C2=C(O)[C@]3(O)C(=O)C(C(N)=O)=C(O)[C@@H](N(C)C)[C@@H]3[C@@H](O)[C@@H]21` [Doxycycline] the MIC90 (K. oxytoca; Asia/Pac, N=17) was 2 µg/mL (≈ 4.5 µM), the MIC90 (K. oxytoca; Europe, N=158) was 2 µg/mL (≈ 4.5 µM) and the “% R (resistance)” value (K. oxytoca; L. Amer) was 12%. The MIC90 (K. oxytoca; L. Amer, N=25) was over 8 µg/mL, the “% R (resistance)” value (K. oxytoca; N America) was 2.3% and the MIC90 (K. oxytoca; N America, N=177) was 4 µg/mL (≈ 9 µM). The MIC90 (E. cloacae CeftazR; Asia/Pac, N=63) was 8 µg/mL (≈ 18 µM), the MIC90 (E. cloacae CeftazR; Europe, N=72) was over 8 µg/mL and the “% R (resistance)” value (E. cloacae CeftazR; L. Amer) was 14.3%. The MIC90 (E. cloacae CeftazR; L. Amer, N=42) was over 8 µg/mL, the “% R (resistance)” value (E. cloacae CeftazR; N America) was 28.6% and the MIC90 (E. cloacae CeftazR; N America, N=77) was over 8 µg/mL. The MIC90 (A. baumanii; Asia/Pac, N=275) was over 8 µg/mL, the MIC90 (A. baumanii; Europe, N=145) was over 8 µg/mL and the “% R (resistance)” value (A. baumanii; L. Amer, CLSI breakpoints) was 15.3%. For the same molecule, the MIC90 (A. baumanii; L. Amer, N=275) was over 8 µg/mL, the MIC90 (A. baumanii; N America, N=154) was over 8 µg/mL and the MIC90 (E. cloacae CeftazS; Asia/Pac, N=100) was over 8 µg/mL. For the same molecule, the MIC90 (E. cloacae CeftazS; Europe, N=183) was 4 µg/mL (≈ 9 µM), the “% R (resistance)” value (E. cloacae CeftazS; L. Amer) was 12.3% and the MIC90 (E. cloacae CeftazS; L. Amer, N=57) was over 8 µg/mL. For the same molecule, the “% R (resistance)” value (E. cloacae CeftazS; N America) was 6.2%, the MIC90 (E. cloacae CeftazS; N America, N=210) was 4 µg/mL (≈ 9 µM) and the MIC90 (E. coli ESBL+; Asia/Pac, N=219) was over 8 µg/mL. For the same molecule, the “resistance rates for ESBL-producing clinical isolates” value (E. coli ESBL+; E. coli) was 46%, the MIC90 (E. coli ESBL+; Europe, N=274) was over 8 µg/mL and the “% R (resistance)” value (E. coli ESBL+; L. Amer) was 53%. For the same molecule, the MIC90 (E. coli ESBL+; L. Amer, N=168) was over 8 µg/mL, the “% R (resistance)” value (E. coli ESBL+; N America) was 42.5% and the MIC90 (E. coli ESBL+; N America, N=134) was over 8 µg/mL. For the same molecule, the MIC90 (K. pneumoniae ESBL−; Asia/Pac, N=189) was over 8 µg/mL, the MIC90 (K. pneumoniae ESBL−; Europe, N=361) was over 8 µg/mL and the “% R (resistance)” value (K. pneumoniae ESBL−; L. Amer) was 17.5%. For the same molecule, the MIC90 (K. pneumoniae ESBL−; L. Amer, N=160) was over 8 µg/mL, the “% R (resistance)” value (K. pneumoniae ESBL−; N America) was 13.7% and the MIC90 (K. pneumoniae ESBL−; N America, N=671) was over 8 µg/mL. The MIC90 (E. coli ESBL−; Asia/Pac, N=282) was over 8 µg/mL, the MIC90 (E. coli ESBL−; Europe, N=1533) was over 8 µg/mL and the “% R (resistance)” value (E. coli ESBL−; L. Amer) was 31.4%. For the same molecule, the MIC90 (E. coli ESBL−; L. Amer, N=389) was over 8 µg/mL, the “% R (resistance)” value (E. coli ESBL−; N America) was 16% and the MIC90 (E. coli ESBL−; N America, N=1172) was over 8 µg/mL. The “% R (resistance)” value (MS CoNS; Asia/Pac, Eucast breakpoints) was 5.6%, the MIC90 (MS CoNS; Asia/Pac, N=18) was 2 µg/mL (≈ 4.5 µM) and the “% R (resistance)” value (MS CoNS; Europe, Eucast breakpoints) was 3.2%. The MIC90 (MS CoNS; Europe, N=185) was 1 µg/mL (≈ 2.25 µM), the “% R (resistance)” value (MS CoNS; L. Amer, CLSI breakpoints) was 0% and the MIC90 (MS CoNS; L. Amer, N=67) was 2 µg/mL (≈ 4.5 µM). For the same molecule, the “% R (resistance)” value (MS CoNS; N America, CLSI breakpoints) was 0.5%, the MIC90 (MS CoNS; N America, N=191) was 1 µg/mL (≈ 2.25 µM) and the “human plasma protein binding, Mean” value (human plasma protein) was 82-93%. The “% R (resistance)” value (MRSA; Asia/Pac, Eucast breakpoints) was 48.6%, the MIC90 (MRSA; Asia/Pac, N=428) was 8 µg/mL (≈ 18 µM) and the “% R (resistance)” value (MRSA; Europe, Eucast breakpoints) was 10.8%. The MIC90 (MRSA; Europe, N=750) was 4 µg/mL (≈ 9 µM), the “% R (resistance)” value (MRSA; L. Amer, CLSI breakpoints) was 0% and the MIC90 (MRSA; L. Amer, N=506) was 0.25 µg/mL (≈ 0.563 µM). The “% R (resistance)” value (MRSA; N America, CLSI breakpoints) was 0.1%, the MIC90 (MRSA; N America, N=2508) was 0.5 µg/mL (≈ 1.13 µM) and the “range of MICs (N <10, shown instead of MIC90)” value (“range of MICs” below) (E. faecalis VNS; Asia/Pac, N=1) was 8. For the same molecule, the “range of MICs” value (E. faecalis VNS; Europe, N=8) was 0.5-8, the “% R (resistance)” value (E. faecalis VNS; L. Amer) was 0% and the “range of MICs” value (E. faecalis VNS; L. Amer, N=7) was ≤0.06-4. For the same molecule, the “% R (resistance)” value (E. faecalis VNS; N America) was 5.3%, the MIC90 (E. faecalis VNS; N America, N=38) was 8 µg/mL (≈ 18 µM) and the MIC90 (E. faecalis VS; Asia/Pac, N=214) was over 8 µg/mL. The MIC90 (E. faecalis VS; Europe, N=669) was over 8 µg/mL, the “% R (resistance)” value (E. faecalis VS; L. Amer) was 7.6% and the MIC90 (E. faecalis VS; L. Amer, N=290) was 8 µg/mL (≈ 18 µM). For the same molecule, the “% R (resistance)” value (E. faecalis VS; N America) was 7.1%, the MIC90 (E. faecalis VS; N America, N=863) was 8 µg/mL (≈ 18 µM) and the MIC90 (E. faecium VNS; Asia/Pac, N=24) was over 8 µg/mL. The MIC90 (E. faecium VNS; Europe, N=71) was 8 µg/mL (≈ 18 µM), the “% R (resistance)” value (E. faecium VNS; L. Amer) was 7.3% and the MIC90 (E. faecium VNS; L. Amer, N=41) was 8 µg/mL (≈ 18 µM). For the same molecule, the “% R (resistance)” value (E. faecium VNS; N America) was 33.1%, the MIC90 (E. faecium VNS; N America, N=478) was over 8 µg/mL and the “% R (resistance)” value (MR CoNS; Asia/Pac, Eucast breakpoints) was 20.8%. For the same molecule, the MIC90 (MR CoNS; Asia/Pac, N=77) was 8 µg/mL (≈ 18 µM), the “% R (resistance)” value (MR CoNS; Europe, Eucast breakpoints) was 8.8% and the MIC90 (MR CoNS; Europe, N=510) was 2 µg/mL (≈ 4.5 µM). The “% R (resistance)” value (MR CoNS; L. Amer, CLSI breakpoints) was 0.3%, the MIC90 (MR CoNS; L. Amer, N=301) was 1 µg/mL (≈ 2.25 µM) and the “% R (resistance)” value (MR CoNS; N America, CLSI breakpoints) was 1.3%. For the same molecule, the MIC90 (MR CoNS; N America, N=461) was 2 µg/mL (≈ 4.5 µM), the MIC90 (E. faecium VS; Asia/Pac, N=106) was over 8 µg/mL and the MIC90 (E. faecium VS; Europe, N=303) was over 8 µg/mL. For the same molecule, the “% R (resistance)” value (E. faecium VS; L. Amer) was 21.6%, the MIC90 (E. faecium VS; L. Amer, N=51) was over 8 µg/mL and the “% R (resistance)” value (E. faecium VS; N America) was 31.3%. For the same molecule, the MIC90 (E. faecium VS; N America, N=115) was over 8 µg/mL, the MIC90 (K. pneumoniae ESBL+; Asia/Pac, N=124) was over 8 µg/mL and the MIC90 (K. pneumoniae ESBL+; Europe, N=151) was over 8 µg/mL. The “% R (resistance)” value (K. pneumoniae ESBL+; L. Amer) was 44%, the MIC90 (K. pneumoniae ESBL+; L. Amer, N=209) was over 8 µg/mL and the “% R (resistance)” value (K. pneumoniae ESBL+; N America) was 43.5%. The MIC90 (K. pneumoniae ESBL+; N America, N=108) was over 8 µg/mL, the “range of MICs” value (Acinetobacter spp; Asia/Pac) was ≤0.06-2 and the MIC90 (Acinetobacter spp; Europe, N=43) was over 8 µg/mL. For the same molecule, the “% R (resistance)” value (Acinetobacter spp; L. Amer) was 0%, the “range of MICs” value (Acinetobacter spp; L. Amer) was ≤0.06-2 and the “% R (resistance)” value (Acinetobacter spp; N America) was 11.9%. For the same molecule, the MIC90 (Acinetobacter spp; N America, N=42) was over 8 µg/mL, the “% R (resistance)” value (MSSA; Asia/Pac, Eucast breakpoints) was 1.7% and the MIC90 (MSSA; Asia/Pac, N=641) was 1 µg/mL (≈ 2.25 µM). For the same molecule, the “% R (resistance)” value (MSSA; Europe, Eucast breakpoints) was 1.4%, the MIC90 (MSSA; Europe, N=2109) was 0.12 µg/mL (≈ 0.27 µM) and the “% R (resistance)” value (MSSA; L. Amer, CLSI breakpoints) was 0%. The MIC90 (MSSA; L. Amer, N=590) was 0.5 µg/mL (≈ 1.13 µM), the “% R (resistance)” value (MSSA; N America, CLSI breakpoints) was at most 0.1% and the MIC90 (MSSA; N America, N=2373) was 0.12 µg/mL (≈ 0.27 µM). For the same molecule, the MIC90 (Enterobacter spp; Asia/Pac, N=52) was over 8 µg/mL, the MIC90 (Enterobacter spp; Europe, N=82) was 8 µg/mL (≈ 18 µM) and the “% R (resistance)” value (Enterobacter spp; L. Amer) was 0%. The MIC90 (Enterobacter spp; L. Amer, N=42) was 4 µg/mL (≈ 9 µM), the “% R (resistance)” value (Enterobacter spp; N America) was 7.9% and the MIC90 (Enterobacter spp; N America, N=101) was 4 µg/mL (≈ 9 µM).
